Results on six compounds are retold here after ChEMBL document CHEMBL1157995, “New acetylenic enol ethers of glycerol from the sponge Petrosia sp” (1999).

Converted amounts (≈) assume the structure as drawn.

This assay deals with K562. The assay is described as follows: Cytotoxicity against human K-562 cells after 5 days by MTT assay. In kind it is functional. The settings on record: K562, 120 h, read-out: LC50 (the source's name).
`CCC(C)CCCCCC#C/C=C\OC[C@@H](O)CO` (stereo partly specified) [PETRORASPAILYNE B2]: the CC50 is over 100 µg/mL.
In the case of `CCCCCCCCC#C/C=C\OC[C@@H](O)CO` [PETRORASPAILYNE B1], the CC50 is over 100 µg/mL.
For the compound `CCC(C)CCCCC/C=C\C#C/C=C\OC[C@@H](O)CO` (stereo partly specified) [PETRORASPAILYNE A3], the CC50 turned out to be 29 µg/mL (≈ 98.5 µM).
With `CC(C)CCCCCCC#C/C=C\OC[C@@H](O)CO` [PETRORASPAILYNE B3] the figure was over 100 µg/mL; with `CCCCCC/C=C\C#C/C=C\OC[C@@H](O)CO` [PETRORASPAILYNE A1], 9.2 µg/mL (≈ 36.5 µM); with `CC(C)CCCC/C=C\C#C/C=C\OC[C@@H](O)CO` [PETRORASPAILYNE A2], 57 µg/mL (≈ 214 µM).
